Entries after “also recorded” stand apart in the source; their conditions may differ.
Experiments:
[1] = tested on: human promyelocytic leukemia HL-60 cells; test: Cytotoxicity, MTT method, HL-60 cells; assay type: cell-based; conditions: for CC50: Homo sapiens, HL-60, 48 h, MTT, mean ± SD, read-out: CC50 HL-60; for SI (selectivity index) HL-60: average CC50 non-malignant cells / CC50 HL-60
Procedure: (§1) Human promyelocytic leukemia [HL-60 (RCB3683)] (purchased from Riken Cell Bank, Tsukuba, Japan) was cultured at 37 °C in RPMI1640 medium (Fujifilm Wako Pure Chemical Co., Osaka, Japan) supplemented with 10% heat (56 °C, 30 min) inactivated FBS (Sigma-Aldrich Inc. St. Louis, MO, USA), 100 U/mL penicillin G, and 100 µg/mL streptomycin sulfate in a humidified 5% CO2 incubator (MCO-170 AICUVD-P, Panasonic Healthcare Co., Ltd., Gunma, Japan). Human oral squamous cell carcinoma (OSCC) cell lines derived from tongue [HSC-2 (RCB1945), HSC-3 (RCB1975), HSC-4 (RCB1902)] (Riken Cell Bank), and human normal oral cells (gingival fibroblasts, HGF; pulp cell, HPC; periodontal ligament fibroblast, HPLF), established from the first premolar extracted tooth in the lower jaw and periodontal tissues of a child, according to the guidelines of Meikai University Ethic Committee (No. A0808), were cultured in DMEM medium (Fujifilm Wako Pure Chemical Co.) supplemented with 10% FBS and antibiotics. The compounds in Series 2–4 were evaluated against HL-60, HSC-2, HSC-3, HSC-4, HGF, HPC, and HPLF cells based on a literature procedure, as described previously. In brief, near confluent cells were incubated in triplicate for 48 h at 37 °C with different concentrations ([…], 6.3, 12.5, 25, 50, 100 µM) of the compounds; then, viable cell numbers were measured using the MTT method. From the dose–response curve, a 50% cytotoxic concentration (CC50) was determined. All samples were dissolved in dimethylsulfoxide (DMSO). The toxicity of DMSO alone was calculated and subtracted. The CC50 values were determined from dose–response curves.

[2] = tested on: human oral squamous cell carcinoma HSC-2 cells; test: Cytotoxicity, MTT method, HSC-2 cells; assay type: cell-based; conditions: for CC50: Homo sapiens, HSC-2, 48 h, MTT, mean ± SD, read-out: CC50 HSC-2; for SI (selectivity index) HSC-2: average CC50 non-malignant cells / CC50 HSC-2
Procedure: as §1

[3] = tested on: human oral squamous cell carcinoma HSC-3 cells; test: Cytotoxicity, MTT method, HSC-3 cells; assay type: cell-based; conditions: for CC50: Homo sapiens, HSC-3, 48 h, MTT, mean ± SD, read-out: CC50 HSC-3; for SI (selectivity index) HSC-3: average CC50 non-malignant cells / CC50 HSC-3
Procedure: as §1

[4] = tested on: human oral squamous cell carcinoma HSC-4 cells; test: Cytotoxicity, MTT method, HSC-4 cells; assay type: cell-based; conditions: for CC50: Homo sapiens, HSC-4, 48 h, MTT, mean ± SD, read-out: CC50 HSC-4; for SI (selectivity index) HSC-4: average CC50 non-malignant cells / CC50 HSC-4
Procedure: as §1

[5] = Cytotoxicity, MTT method, HGF non-malignant cells; assay type: cell-based, human; conditions: human, gingival fibroblasts (HGF), non-malignant, mean ± SD
Procedure: as §1

[6] = Cytotoxicity, MTT method, HPC non-malignant cells; assay type: cell-based, human; conditions: human, pulp cells (HPC), non-malignant, mean ± SD
Procedure: as §1

[7] = Cytotoxicity, MTT method, HPLF non-malignant cells; assay type: cell-based, human; conditions: human, periodontal ligament fibroblasts (HPLF), non-malignant, mean ± SD
Procedure: as §1

[8] = tested on: human tumour cell lines HL-60, HSC-2, HSC-3, HSC-4; test: Cytotoxicity, average over the four human tumour cell lines; assay type: cell-based; conditions: for CC50: Homo sapiens, average of HL-60, HSC-2, HSC-3, HSC-4, read-out: AVE. CC50, human tumour cell lines; for AVE SI: average of the four SI values
Procedure: as §1

[9] = Cytotoxicity, average over the three human normal cells; assay type: cell-based; conditions: human, average of HGF, HPC, HPLF; read-out: AVE CC50, human normal cells
Procedure: as §1

[10] = tested on: caspases-3 and -7; test: Caspase-Glo 3/7 assay in HSC-2 cells; assay type: cell-based, human; conditions: 0.5 µM, 24 h
Procedure: Both 3b (0.5 µM) and 3c (0.5 µM) were examined for their ability to activate caspases-3 and -7 in HSC cells. This determination was accomplished using the Caspase-Glo 3/7 assay (Promega Corporation, Madison, WI, USA). In brief, this assay uses a tetrapeptide sequence DEVD, which is optimized for caspase and luciferase activities. The cell lysate was incubated with the Caspase-Glo reagent (buffer and substrate) for 1 h and the luminescence was measured. The resultant luminescent signal produced by luciferase was confirmed to be proportional to the amount of caspase-3 and -7 activity.

[11] = tested on: PARP1; test: PARP1 cleavage, western blot in HSC-2 cells; assay type: cell-based, human; conditions: 0.5 µM, 24 h
Procedure: (§2) Antibodies against cleaved PARP1, bim, bax, puma, and bak were obtained from Cell Signaling Technology (Beverley, MA, USA) while the anti-actin antibody was purchased from Santa Cruz Biotechnology (Santa Cruz, CA, USA).
(§3) The HSC-2 cells were cultured for 24 h and, then, treated with 0.5 µM of 3b or 3c for 24 h. The cells were scraped and collected in lysis buffer (purchased from Cell Signaling Technology), which contained 1 mM of phenylmethanesulfonyl fluoride and one tablet of protease inhibitor cocktail (Complete, EDTA-free; Roche Diagnostics, Mannheim, Germany). The proteins were subjected to 8% SDS-polyacrylamide gel electrophoresis and, then, transferred to a polyvinylidene difluoride membrane saturated with 5% nonfat dry milk. The membranes were incubated with rabbit monoclonal anti-cleaved PARP (Cell Signaling Technology, Beverly, MA, USA; #9541, 1:1000), or beta-actin antibody (Sigma-Aldrich, St Louis, MO, USA; A5441, 1:10,000) for 1 h at room temperature. The membranes were washed with Tris-buffered saline containing 0.1% Tween 80. And, the secondary antibodies were horseradish peroxidase-conjugated goat antimouse or antirabbit, which reacted with the chemoluminescent substrate system and were exposed to X-ray films.

[12] = tested on: HSC-2 cells; test: Cell cycle analysis of HSC-2 cells; assay type: cell-based, human; conditions: 0.5 µM, 24 h
Procedure: The effect of 3b (0.5 µM) and 3c (0.5 µM) on the phase distribution of HSC-2 cells after 24 h of incubation was determined using the protocol of a manufacturer (BD Pharmingen, BD BioSciences, San Jose, CA, USA). In brief, treated and untreated cells were suspended at a density of ~1 × 10^6 cells/mL in cooled phosphate-buffered saline (PBS) without calcium and magnesium ions and fixed with 70% ethanol overnight at −20 °C. The cells were washed with cooled PBS and re-suspended in a propidium iodide/RNase staining buffer in the dark at room temperature for 0.25 h. Both acquisition and analysis were performed using EPICS ALTRA (Beckman Coulter, Brea, CA, USA) and EXPO 32 software.

[13] = tested on: bim, bax, puma, and bak; test: Pro-apoptotic proteins bim, bax, puma, bak in HSC-2 cells; assay type: cell-based, human; conditions: 24 h, data not shown
Procedure: as §2, §3

[14] = tested on: HCT116 cells; test: Mitochondrial membrane potential determination in HCT116 cells; assay type: cell-based, human; conditions: 48 h, tetramethylrhodamine ethyl ester
Procedure: The determination of the IC50 values of 3b, 3c, and 5-FU on the mitochondrial membrane potential in HCT 116 cells was undertaken using a literature procedure. In brief, the cells were incubated at 37 °C in an atmosphere of 5% carbon dioxide for 24 h. The compounds were dissolved in DMSO, added to the cells, and incubated for 48 h. Then, […], and 2,4-dinitrophenol (DNP) were added to the cells, which were incubated for 0.5 h. After the addition of tetramethylrhodamine ethyl ester, the fluorescence of the cells was determined using a plate reader.

[15] = tested on: HCT116 cells; test: Reactive oxygen species determination in HCT116 cells; assay type: cell-based, human
Procedure: The determination of the effects of 3b, 3c, and 5-FU on the generation of reactive oxygen species in HCT 116 cells was accomplished using a literature procedure. In brief, the cells were incubated at 37 °C in an atmosphere of 5% carbon dioxide for 24 h. Subsequently, solutions of the compounds in DMSO were added to the cells, which were incubated for 48 h. After 2′,7′-dichlorofluorescein was added to the cells, incubation continued for another 0.5 h and the fluorescence of the cells was measured spectrophotometrically (excitation wavelength 485 nm; emission wavelength, 530 nm).

[16] = tested on: human normal cells HGF, HPC, HPLF; test: Cytotoxicity, average over the three human normal cells; assay type: cell-based; conditions: average of HGF, read-out: AVE CC50, human normal cells
Procedure: as §1

O=C1/C(=C/c2ccc(F)cc2)CN(C(=O)CC(=O)N2C/C(=C\c3ccc(F)cc3)C(=O)/C(=C/c3ccc(F)cc3)C2)C/C1=C\c1ccc(F)cc1 [Compound 3b]
CC50 [1]: 0.028 ± 0.001 µM
SI (selectivity index) HL-60 [1]: 151
CC50 [2]: 0.041 ± 0.004 µM
SI (selectivity index) HSC-2 [2]: 103
CC50 [3]: 0.046 ± 0.011 µM
SI (selectivity index) HSC-3 [3]: 92.0
CC50 [4]: 0.023 ± 0.003 µM
SI (selectivity index) HSC-4 [4]: 184
CC50 at 48 h [5]: 3.8 ± 0.71 µM
CC50 at 48 h [6]: 3.2 ± 1.1 µM
CC50 at 48 h [7]: 5.7 ± 0.67 µM
CC50 values in all four bioassays (range in words) ([8]; HL-60, HSC-2, HSC-3, HSC-4): double-digit nanomolar range
CC50 [8]: 0.04 µM
AVE SI [8]: 133
CC50 at 48 h [9]: 4.23 µM
Induction of caspases-3 and -7 [10]: induced caspases-3 and -7
Cleavage of PARP1 [11]: causing the cleavage of PARP; also recorded: leads to the cleavage of PARP1
Cell cycle effect [12]: G2M arrest in the cell cycle; also recorded: causes a G2/M arrest
Effect on pro-apoptotic proteins bim, bax, puma, bak [13]: no changes in the concentrations of these proteins were observed
Effect on mitochondrial membrane potential (MMP) [14]: huge effect on lowering the MMP
ROS generation, potency relative to 3c [15]: approximately twice the potency of 3c
Generation of reactive oxygen species (ROS) ([15]; 48 h, dichlorofluorescein fluorescence): cause an increase in the ROS concentrations

O=C1/C(=C/c2ccc(Cl)c(Cl)c2)CN(C(=O)CC(=O)N2C/C(=C\c3ccc(Cl)c(Cl)c3)C(=O)/C(=C/c3ccc(Cl)c(Cl)c3)C2)C/C1=C\c1ccc(Cl)c(Cl)c1 [Compound 3d]
CC50 [1]: 65 ± 6.1 µM
SI (selectivity index) HL-60 [1]: >1.54
CC50 [2]: 73 ± 3.5 µM
SI (selectivity index) HSC-2 [2]: >1.37
CC50 [3]: 76 ± 13 µM
SI (selectivity index) HSC-3 [3]: >1.32
CC50 [4]: 79 ± 5.5 µM
SI (selectivity index) HSC-4 [4]: >1.27
CC50 at 48 h [5]: > 100 µM
CC50 at 48 h [6]: > 100 µM
CC50 at 48 h [7]: > 100 µM
CC50 [8]: 73.3 µM
AVE SI [8]: >1.38
CC50 at 48 h [9]: > 50 µM
CC50 [16]: > 100 µM

COc1cc(/C=C/C(=O)CC(=O)/C=C/c2ccc(O)c(OC)c2)ccc1O [Curcumin, reference compound]
CC50 [1]: 7.8 ± 0.58 µM
SI (selectivity index) HL-60 [1]: 5.81
CC50 [2]: 10 ± 0.81 µM
SI (selectivity index) HSC-2 [2]: 4.53
CC50 [3]: 16 ± 2.7 µM
SI (selectivity index) HSC-3 [3]: 2.83
CC50 [4]: 14 ± 3.2 µM
SI (selectivity index) HSC-4 [4]: 3.24
CC50 at 48 h [5]: 70 ± 12 µM
CC50 at 48 h [6]: 34 ± 6.8 µM
CC50 at 48 h [7]: 32 ± 6.4 µM
CC50 [8]: 12 µM
AVE SI [8]: 4.10
CC50 at 48 h [9]: 45.3 µM

Reference: publication PMC10821124, “Dimeric 3,5-Bis(benzylidene)-4-piperidones: Tumor-Selective Cytotoxicity and Structure-Activity Relationships” (Medicines, 2024)
